Laboratory results: ChEMBL document CHEMBL5370533 (Eur J Med Chem, 2023)
pIC50, pKd: −log10 of the molar value. Activity calls are given as the source filed them. The calls are words filed in the database; no cut-off is given here.

Assays:
[1] = Cytotoxicity against mouse BaF3 cells assessed as inhibition of cell growth incubated for 72 hrs; type: toxicity, cell-based
[2] = Half life in Beagle dog at […], po; type: ADME, organism-based, Canis lupus familiaris; conditions: in vivo, dose 1.5 mg/kg
[3] = biological target: CDK7/Cyclin H/MNAT1 (Homo sapiens) (UniProt P51946+P50613+P51948); test: Inhibition of CDK7/Cyclin H/MAT1 (unknown origin); type: protein-complex assay; conditions: concentration not given here
[4] = biological target: Cyclin-dependent kinase 6 (Homo sapiens, UniProt Q00534); test: Inhibition of human CDK6 pretreated for 20 mins followed by [gamma-33P]-ATP addition and measured after 120 mins in presence of 10 uM ATP by radiometric Hot-SpotSM Kinase assay
[5] = biological target: Receptor-type tyrosine-protein kinase FLT3 (Homo sapiens, UniProt P36888, K663Q); test: Binding affinity to FLT3 K663Q mutant (unknown origin)
[6] = system: BaF3; test: cells; type: functional, cell-based; conditions: Mus musculus, BaF3, 72 h
Description: Antiproliferative activity against mouse BaF3 cells harboring FLT3 ITD/D835V mutant assessed as inhibition of cell growth incubated for 72 hrs

[7] = Clearance in human liver microsomes measured per mg protein by LC-MS/MS analysis; type: ADME, Microsome; conditions: read-out: CLH
[8] = biological target: T1, Receptor-type tyrosine-protein kinase FLT3 (Homo sapiens, UniProt P36888); test: Inhibition of human FLT3 using EAIYAAPFAKKK and [gamma-33P]-ATP as substrate pretreated for 20 mins followed by [gamma-33P]-ATP addition and measured after 120 mins in presence of 10 uM ATP by radiometric Hot-SpotSM Kinase assay
T1 sequence (P36888 whole entry): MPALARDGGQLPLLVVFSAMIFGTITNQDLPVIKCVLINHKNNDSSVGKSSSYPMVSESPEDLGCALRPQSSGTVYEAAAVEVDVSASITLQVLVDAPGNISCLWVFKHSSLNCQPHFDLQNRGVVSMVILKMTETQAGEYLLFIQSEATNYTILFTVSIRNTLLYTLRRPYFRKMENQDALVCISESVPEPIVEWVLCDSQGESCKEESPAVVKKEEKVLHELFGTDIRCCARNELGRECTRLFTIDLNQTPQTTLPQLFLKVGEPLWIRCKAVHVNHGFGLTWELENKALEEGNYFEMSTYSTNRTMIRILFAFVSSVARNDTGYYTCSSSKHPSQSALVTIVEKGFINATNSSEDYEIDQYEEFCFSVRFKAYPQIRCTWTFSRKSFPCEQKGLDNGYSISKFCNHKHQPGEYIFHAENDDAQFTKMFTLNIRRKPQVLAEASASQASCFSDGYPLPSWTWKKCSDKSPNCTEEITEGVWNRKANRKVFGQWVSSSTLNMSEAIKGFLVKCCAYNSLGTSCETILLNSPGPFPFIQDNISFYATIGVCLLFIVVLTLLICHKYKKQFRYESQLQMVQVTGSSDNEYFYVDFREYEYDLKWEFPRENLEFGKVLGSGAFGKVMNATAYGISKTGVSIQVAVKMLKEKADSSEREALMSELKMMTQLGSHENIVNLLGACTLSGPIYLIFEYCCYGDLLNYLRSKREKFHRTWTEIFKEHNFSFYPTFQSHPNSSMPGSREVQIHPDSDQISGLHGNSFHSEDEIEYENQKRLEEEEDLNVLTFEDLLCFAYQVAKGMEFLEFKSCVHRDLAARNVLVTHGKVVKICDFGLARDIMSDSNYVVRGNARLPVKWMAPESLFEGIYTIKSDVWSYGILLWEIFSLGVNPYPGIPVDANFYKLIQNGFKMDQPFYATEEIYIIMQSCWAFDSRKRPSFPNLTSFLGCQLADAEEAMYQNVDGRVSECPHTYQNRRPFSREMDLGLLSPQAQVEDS

[9] = Oral bioavailability in rat at 10 mg/kg; type: ADME, organism-based; conditions: in vivo
[10] = biological target: T1, Receptor-type tyrosine-protein kinase FLT3; test: Binding affinity to autoinhibited FLT3 (unknown origin)
[11] = biological target: Receptor-type tyrosine-protein kinase FLT3 (Homo sapiens) (UniProt P36888); test: Inhibition of FLT3 in human MV4-11 cells assessed as decrease in phosphorylated ERK level incubated for 24 hrs by immunoblot analysis; type: cell-based; conditions: dose 20-600 nM
[12] = system: THP-1; test: Antiproliferative activity against human THP-1 cells expressing wild type FLT3 assessed as inhibition of cell growth; type: functional, cell-based
[13] = system: SR; test: Antiproliferative activity against human SR cells not addicted to FLT3 ITD mutant assessed as inhibition of cell growth; type: functional
[14] = system: K562; test: Antiproliferative activity against human K562 cells deficit of oncogenic FLT3 assessed as inhibition of cell growth; type: functional, cell-based
[15] = system: ACHN; test: Antiproliferative activity against human ACHN cells assessed as inhibition of cell growth; type: functional
[16] = Half life in human liver microsomes by LC-MS/MS analysis; type: ADME, Microsome
[17] = biological target: Receptor-type tyrosine-protein kinase FLT3 (Homo sapiens, UniProt P36888, ITD); test: Binding affinity to FLT3 ITD mutant (unknown origin)
[18] = system: MOLM-13; test: Antiproliferative activity against human MOLM-13 cells harboring FLT3 ITD mutant assessed as inhibition of cell growth; type: functional, cell-based
[19] = biological target: Receptor-type tyrosine-protein kinase FLT3 (Homo sapiens) (UniProt P36888); test: Inhibition of FLT3 in human MV4-11 cells assessed as decrease in phosphorylated STAT5 level incubated for 24 hrs by immunoblot analysis; type: cell-based; conditions: dose 20-600 nM
[20] = biological target: Receptor-type tyrosine-protein kinase FLT3 (Homo sapiens, UniProt P36888, R834Q); test: Binding affinity to FLT3 R834Q mutant (unknown origin)
[21] = biological target: T1, Receptor-type tyrosine-protein kinase FLT3; test: Binding affinity to FLT3 (unknown origin)
[22] = biological target: Mast/stem cell growth factor receptor Kit (Homo sapiens) (UniProt P10721); test: Inhibition of c-Kit (unknown origin)
[23] = biological target: Receptor-type tyrosine-protein kinase FLT3 (Homo sapiens, UniProt P36888, D835V); test: Binding affinity to FLT3 D835V mutant (unknown origin)
[24] = biological target: Receptor-type tyrosine-protein kinase FLT3 (Homo sapiens) (UniProt P36888); test: Inhibition of FLT3 in human MV4-11 cells assessed as decrease in phosphorylated FLT3 level incubated for 24 hrs by immunoblot analysis; type: cell-based; conditions: dose 20-600 nM
[25] = Cmax in Beagle dog at […], po; type: ADME, organism-based, Canis lupus familiaris; parameters: dose 1.5 mg/kg, route po; conditions: in vivo
[26] = biological target: Receptor-type tyrosine-protein kinase FLT3 (Homo sapiens, UniProt P36888, N841I); test: Binding affinity to FLT3 N841I mutant (unknown origin)
[27] = biological target: Cyclin-dependent kinase 2 (Homo sapiens, UniProt P24941); test: Inhibition of human CDK2 pretreated for 20 mins followed by [gamma-33P]-ATP addition and measured after 120 mins in presence of 10 uM ATP by radiometric Hot-SpotSM Kinase assay
[28] = Tmax in Beagle dog at […], po; type: ADME, organism-based, Canis lupus familiaris; conditions: in vivo, dose 1.5 mg/kg
[29] = system: U-937; test: Antiproliferative activity against human U-937 cells expressing low level wild type FLT3 assessed as inhibition of cell growth; type: functional, cell-based
[30] = Toxicity against nu/nu mouse xenografted with human MV4-11 cells assessed as decrease in body weight at 25 mg/kg, po qd for 2 weeks; type: organism-based; conditions: in vivo, 336 h
[31] = system: SW-620; test: Antiproliferative activity against human SW-620 cells assessed as inhibition of cell growth; type: functional
[32] = biological target: Receptor-type tyrosine-protein kinase FLT3 (Homo sapiens) (UniProt P36888); test: Inhibition of FLT3 (unknown origin); conditions: concentration not given here
[33] = system: BaF3; test: cells; type: functional, cell-based; conditions: Mus musculus, BaF3, 72 h; remark: listed apart in the source
Description: Antiproliferative activity against mouse BaF3 cells harboring FLT3 ITD mutant assessed as inhibition of cell growth incubated for 72 hrs

Mast/stem cell growth factor receptor Kit (Homo sapiens), sequence (P10721 whole entry): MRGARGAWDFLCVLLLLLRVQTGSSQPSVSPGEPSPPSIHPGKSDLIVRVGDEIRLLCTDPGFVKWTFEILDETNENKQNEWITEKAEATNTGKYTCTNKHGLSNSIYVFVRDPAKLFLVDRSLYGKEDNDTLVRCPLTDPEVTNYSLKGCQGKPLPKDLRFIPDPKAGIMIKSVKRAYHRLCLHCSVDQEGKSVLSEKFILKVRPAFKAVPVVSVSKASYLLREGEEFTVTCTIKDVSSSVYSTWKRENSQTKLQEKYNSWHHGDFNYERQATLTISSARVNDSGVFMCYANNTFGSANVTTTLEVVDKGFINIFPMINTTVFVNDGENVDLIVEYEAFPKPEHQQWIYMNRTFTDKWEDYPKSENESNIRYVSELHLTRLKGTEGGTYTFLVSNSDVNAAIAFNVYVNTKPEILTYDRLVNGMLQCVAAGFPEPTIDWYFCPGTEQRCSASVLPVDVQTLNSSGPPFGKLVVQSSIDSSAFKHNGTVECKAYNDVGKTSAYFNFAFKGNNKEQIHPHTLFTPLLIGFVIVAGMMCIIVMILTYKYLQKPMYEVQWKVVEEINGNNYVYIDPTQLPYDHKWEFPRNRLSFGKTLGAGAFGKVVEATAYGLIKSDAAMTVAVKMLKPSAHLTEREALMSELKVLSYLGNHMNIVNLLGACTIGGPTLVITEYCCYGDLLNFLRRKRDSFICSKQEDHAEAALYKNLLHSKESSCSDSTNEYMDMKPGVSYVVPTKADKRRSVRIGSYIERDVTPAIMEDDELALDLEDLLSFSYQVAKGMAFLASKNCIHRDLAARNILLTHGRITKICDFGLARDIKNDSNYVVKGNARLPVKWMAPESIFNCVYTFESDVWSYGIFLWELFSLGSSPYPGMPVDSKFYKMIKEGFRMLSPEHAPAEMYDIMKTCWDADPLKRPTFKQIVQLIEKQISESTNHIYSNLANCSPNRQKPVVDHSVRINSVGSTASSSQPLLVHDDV
Cyclin-dependent kinase 6, sequence (Q00534 whole entry): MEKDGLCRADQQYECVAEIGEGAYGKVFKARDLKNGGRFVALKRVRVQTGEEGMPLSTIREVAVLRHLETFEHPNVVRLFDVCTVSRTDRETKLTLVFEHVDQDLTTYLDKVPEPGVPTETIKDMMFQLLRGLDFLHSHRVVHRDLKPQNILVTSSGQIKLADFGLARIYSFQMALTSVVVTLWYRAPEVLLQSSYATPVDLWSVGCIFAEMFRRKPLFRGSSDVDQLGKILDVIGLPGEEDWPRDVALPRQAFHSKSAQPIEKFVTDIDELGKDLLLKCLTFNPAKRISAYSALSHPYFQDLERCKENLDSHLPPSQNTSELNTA

half-life [2]: 11.1 h | inhibition [3]: 80.9% | pIC50 [4]: 6.92 | pKd [5]: 6.92 | pIC50 [6]: 8.05 | microsomal CLint [7]: 7.4 µL/min/mg | pIC50 [8]: 9.21 | bioavailability [9]: 33.3% | pKd [10]: 6.92 | inhibition [11]: Dose-Dependent Effect | pIC50 [12]: 6.04 | pIC50 [14]: 6.24 | GI50 [15]: < 1000 nM | half-life [16]: 3.1 h | pKd [17]: 7.74 | pIC50 [18]: 7.79 | inhibition [19]: Dose-Dependent Effect | pKd [20]: 7.18 | pKd [21]: 7.66 | inhibition [22]: Active | pKd [23]: 8.81 | inhibition [24]: Dose-Dependent Effect | Cmax [25]: 52.1 ng/mL | pKd [26]: 7.11 | pIC50 [27]: 7.01 | Tmax [28]: 1.67 h | pIC50 [29]: 6.16 | GI50 [31]: < 1000 nM | inhibition [32]: 99.6% | pIC50 [33]: 7.41
SMILES: O=C(Nc1ccc(N2CCNCC2)cc1)c1n[nH]cc1Nc1cc(Oc2ccccc2)ncn1
IC50 at 72 h [1]: 2920 nM | GI50 [13]: 300 nM | Activity [30]: Non-Toxic
